Legend:
[1] = Half-life in C57BL/6 mouse at 3 mg/kg, po or 1 mg/kg, iv measured after 24 hrs by LC-MS/MS analysis; assay type: ADME, organism-based; details: in vivo
[2] = Volume of distribution at steady state in Beagle dog at 1 mg/kg, po or 0.1 mg/kg, iv measured after 24 hrs by LC-MS/MS analysis; assay type: ADME, organism-based, Canis lupus familiaris; details: in vivo
[3] = Dose normalized AUC in Beagle dog at 1 mg/kg, po measured after 24 hrs by LC-MS/MS analysis; assay type: ADME, organism-based, Canis lupus familiaris; details: in vivo
[4] = Oral bioavailability in Beagle dog at 1 mg/kg measured after 24 hrs by LC-MS/MS analysis; assay type: ADME, organism-based, Canis lupus familiaris; details: in vivo
[5] = Lipophilicity, logD of compound at pH 7.4; assay type: physicochemical; details: buffer
[6] = Oral bioavailability in C57BL/6 mouse measured after 24 hrs by LC-MS/MS analysis; assay type: ADME, organism-based; details: in vivo
[7] = Drug concentration in blood of C57BL/6 mouse model of acute peritonitis at 3 mg/kg, po preadministered with compound for 1 hrs followed by LPS stimulation for 2 hrs and measured 15 mins after ATP addition by HPLC-MS/MS analysis; assay type: ADME, organism-based; details: whole blood, read-out: Ct
[8] = Drug concentration in brain of C57BL/6 mouse model of acute peritonitis at 50 mg/kg, po preadministered with compound for 1 hrs followed by LPS stimulation for 2 hrs and measured 15 mins after ATP addition by HPLC-MS/MS analysis; assay type: ADME, organism-based; details: read-out: Ct
Cytochrome P450 3A4 = Cytochrome P450 3A4 (Homo sapiens, UniProt P08684); assay: Inhibition of CYP3A4 (unknown origin); assay type: ADME
[9] = Drug metabolism in dog liver microsome assessed as thiophene oxidation mediated metabolite formation; assay type: ADME, Canis lupus familiaris; details: microsomes
[10] = Drug metabolism in human liver microsome assessed as thiophene oxidation mediated metabolite formation; assay type: ADME; details: microsomes
[11] = Clearance in human liver microsomes; assay type: ADME, Microsome; details: read-out: CLH
[12] = Protein binding in mouse plasma; assay type: ADME, cell-free; details: read-out: PPB (converted)

Chain of Cytochrome P450 3A4 (P08684 whole entry): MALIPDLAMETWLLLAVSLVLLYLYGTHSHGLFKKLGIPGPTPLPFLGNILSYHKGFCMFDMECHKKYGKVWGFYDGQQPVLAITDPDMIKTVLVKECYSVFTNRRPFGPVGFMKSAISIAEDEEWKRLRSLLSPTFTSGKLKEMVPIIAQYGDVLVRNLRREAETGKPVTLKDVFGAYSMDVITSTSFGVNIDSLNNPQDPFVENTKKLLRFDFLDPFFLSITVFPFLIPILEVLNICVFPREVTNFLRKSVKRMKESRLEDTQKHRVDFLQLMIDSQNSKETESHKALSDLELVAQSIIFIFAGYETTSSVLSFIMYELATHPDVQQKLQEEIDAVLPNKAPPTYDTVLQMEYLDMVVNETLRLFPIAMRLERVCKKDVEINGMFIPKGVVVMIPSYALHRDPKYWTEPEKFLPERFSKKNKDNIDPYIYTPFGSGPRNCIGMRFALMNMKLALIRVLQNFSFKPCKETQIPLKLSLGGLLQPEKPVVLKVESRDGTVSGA

With `CN1CCC[C@@H](NC(=O)Cn2nc(C(C)(C)O)n3c(cc4sc(Cl)cc43)c2=O)C1` the half-life [1] was 1 h, the Vdss [2] was 4.1 L/kg and the AUC/dose [3] was 2530 nmol·h/L. The bioavailability [4] was 89%, the logD [5] was 2.3 and the bioavailability [6] was 36%. The concentration at 3.25 h [7] was 70 nM, the concentration at 3.25 h [8] was 398 nM and the IC50 (Cytochrome P450 3A4) was greater than 25 µM. For the same compound, the Drug metabolism [9] was “Metabolite_Notdetected”, the Drug metabolism [10] was “Metabolite_Notdetected” and the microsomal CLint [11] was 37 µL/min/mg. For the same compound, the fraction unbound [12] was 0.03.

Source: ChEMBL document CHEMBL5537164, “Discovery of Potent, Orally Bioavailable, Tricyclic NLRP3 Inhibitors” (J Med Chem, 2024)
